{"source": "patent US9931679B2", "about": "“Method for cleaning hard surfaces” (KIMBERLY-CLARK WORLDWIDE, INC., priority 2013, dated 2018)", "system": "Pseudomonas aeruginosa (ATCC 27853)", "experiment": "Zone of Inhibition Test (AATCC 147-1998, modified)", "assay_type": "cell-based", "details": "diameter of inhibited colony formation; 1.5 by 1.5 cm test material on inoculated agar plate, 48 hours at ambient temperature", "method": "Zone of inhibition testing with a variety of gram negative and gram positive bacteria was performed. The test material was brought into contact with a known amount of test microorganisms on an agar plate for 48 hours at ambient temperature. At the end of the contact time the diameter of inhibited colony formation (zone of inhibition) surrounding the test material was measured. […] Referenced method AATCC 147-1998 “Antibacterial Activity Assessment of Textile Materials: Parallel Streak Method” with changes for following Zone of Inhibition procedure (AATCC is “American Association of Textile Chemists and Colorists” located in Research Triangle Park, N.C.): Organisms used in this study were Escherichia coli (ATCC 11229)/Staphylococcus aureus (ATCC 6538)/Pseudomonas aeruginosa (ATCC 27853) (ATCC is “American Type Culture Collection” an organization in Manassas, Va.). Washed cells were diluted in Butterfield's Phosphate buffer to a target titer of approximately 10^8 colony forming units (CFU)/mL. Agar plates for testing were brought to room temperature prior to inoculation. A sterile applicator swab was placed in cell suspension and excess fluid was expressed using the side of the centrifuge tube. […] At the end of the contact time, the diameter of inhibited colony formation (zone of inhibition) surrounding the test material was measured."}
{"molecule": "CN[C@H](CC(C)C)C(=O)N[C@H]1C(=O)N[C@@H](CC(N)=O)C(=O)N[C@H]2C(=O)N[C@H]3C(=O)N[C@H](C(=O)N[C@H](C(=O)O)c4cc(O)cc(O)c4-c4cc3ccc4O)[C@H](O)c3ccc(c(Cl)c3)Oc3cc2cc(c3O[C@@H]2O[C@H](CO)[C@@H](O)[C@H](O)[C@H]2O[C@H]2C[C@](C)(N)[C@H](O)[C@H](C)O2)Oc2ccc(cc2Cl)[C@H]1O", "note": "[Positive Control, vancomycin]", "values": [{"measurement": "P. aeroginosa ZOI* (cm)", "result": 1.9, "unit": "cm"}]}
